Reference: PubChem BioAssay (NCI)
“And” between values parts separate entries of the source, which are not always exact repeats. Equal entries are not always repeated.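 Growth conditions: 96-well plates. Treatment: test compound, 48 hours, 5 concentrations. Analysis: linear interpolation between bracketing concentrations; unreached endpoints set to highest concentration. GI50 marks 50% less growth. Definition used: TGI = concentration required for complete inhibition of growth.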

Legend:
Experiment in all cases: DTP human tumour cell line panel, 48 h
EKVX NSCLC = tested on: EKVX NSCLC
ACHN renal = tested on: ACHN renal
PC-3 prostate = tested on: PC-3 prostate
MALME-3M melanoma = tested on: MALME-3M melanoma
MOLT-4 leukemia = tested on: MOLT-4 leukemia
A498 renal = tested on: A498 renal
HOP-92 NSCLC = tested on: HOP-92 NSCLC
HT29 colon = tested on: HT29 colon
SNB-19 CNS = tested on: SNB-19 CNS
MCF7 breast = tested on: MCF7 breast

Compound	GI50 (EKVX NSCLC)	TGI (EKVX NSCLC)	GI50 (ACHN renal)	TGI (ACHN renal)	GI50 (PC-3 prostate)	TGI (PC-3 prostate)	GI50 (MALME-3M melanoma)	TGI (MALME-3M melanoma)	GI50 (MOLT-4 leukemia)	TGI (MOLT-4 leukemia)	GI50 (A498 renal)	TGI (A498 renal)	GI50 (HOP-92 NSCLC)	TGI (HOP-92 NSCLC)	GI50 (HT29 colon)	TGI (HT29 colon)	GI50 (SNB-19 CNS)	TGI (SNB-19 CNS)	GI50 (MCF7 breast)	TGI (MCF7 breast)
O=C(N/N=C/c1cc(Cl)ccc1O)c1ccccc1Nc1ccnc(C(F)(F)F)c1	0.25 µM	4.86 µM	0.3 µM	11.2 µM	1.01 µM	35.6 µM	0.839 µM	5.29 µM	0.241 µM	6.27 µM	0.585 µM	7.9 µM	0.833 µM	12.1 µM	1.95 µM	18.3 µM	0.89 µM	24.3 µM	0.351 µM	30.3 µM
COc1ccc(/C=C\c2cc(OC)c(OC)c(OC)c2)cc1OC(=O)CC(N)C(=O)O (stereo not drawn)	–	> 100 µM	0.000709 µM	> 100 µM	0.00227 µM	–	0.00102 µM	–	0.00172 µM	–	–	0.00888 µM	0.00339 µM	77.3 µM	4.65 µM	39.6 µM	0.000909 µM	–	0.0244 µM	–
COc1cc2c(NC3CCN(C(C)C)CC3)nc(C3CCCCC3)nc2cc1OCCCN1CCCC1	8.42 µM	21.1 µM	10.4 µM	23 µM	7.09 µM	22.4 µM	1.8 µM	3.42 µM	3.38 µM	11.6 µM	2.01 µM	14.1 µM	3.48 µM	15.6 µM	1.49 µM	3.86 µM	15.4 µM	30.3 µM	2.64 µM	14.4 µM
Oc1ccc(Cl)cc1Sc1cc(Cl)ccc1O	2.58 µM	33 µM and 8.19 µM	2.72 µM	23.1 µM and 8.27 µM	2.72 µM	30.1 µM and 9.58 µM	2.41 µM	20.3 µM and 6.81 µM	3.77 µM	> 100 µM and 24.7 µM	2.73 µM	24.2 µM and 7.72 µM	0.421 µM	9.71 µM and 3.43 µM	3.27 µM	33 µM and 12.6 µM	4.19 µM	57.1 µM and 16 µM	3.33 µM	34.5 µM and 10.7 µM
C=C1C(=O)O[C@@H]2CC(CO)=C([C@@H](C)CCCO)[C@@H](OC(=O)/C(C)=C\C)[C@H]12	–	48.2 µM	–	39.8 µM	–	45.7 µM	–	32.5 µM	–	33.4 µM	–	> 74.1 µM	–	56.7 µM	–	26.6 µM	–	> 54.6 µM	–	23.4 µM
OC(CN1CCCC2CCCCC21)c1cc2ccccc2c2ccccc12 (stereo not drawn)	1.56 µM	3.54 µM	3 µM	10.1 µM	2.27 µM	10.1 µM	1.53 µM	3.45 µM	1.81 µM	4.79 µM	2.21 µM	5.8 µM	1.24 µM	3.42 µM	1.32 µM	3.07 µM	3.52 µM	15.1 µM	1.84 µM	3.51 µM
CN(C)C(=S)/N=c1\ssc(=S)n1Cc1ccco1	–	> 100 µM	–	> 100 µM	–	> 100 µM	–	> 100 µM	–	> 83.7 µM	–	> 74.2 µM	–	> 100 µM	–	> 24.4 µM	–	> 78.4 µM	–	> 100 µM
C(=C\c1ccncc1)/c1ccncc1	> 100 µM	> 100 µM	> 100 µM	> 100 µM	> 100 µM	> 100 µM	> 100 µM	> 100 µM	> 100 µM	> 100 µM	10 µM	> 100 µM	74.9 µM	> 100 µM	> 100 µM	> 100 µM	> 100 µM	> 100 µM	> 100 µM	> 100 µM
NC(Cc1cccnn1)C(=O)O (stereo not drawn)	–	> 100 µM	–	> 100 µM	–	> 100 µM	–	> 100 µM	–	> 100 µM	–	> 100 µM	–	> 100 µM	–	> 100 µM	–	> 100 µM	–	> 100 µM
CCC[n+]1cc2cc3c(cc2c2c1-c1cc4c(cc1C2)OCO4)OCO3 (tested in a mixture with another compound)	2.18 µM	19.2 µM	12.1 µM	51.3 µM	0.986 µM	7.16 µM	0.29 µM	1.53 µM	0.251 µM	3.03 µM	11.2 µM	25.7 µM	0.683 µM	4.07 µM	1.41 µM	16.6 µM	0.269 µM	2.18 µM	0.468 µM	6.34 µM
CC(=O)O[C@@H]1C2=C(C)C3(CC3)[C@@](C)(O)C(=O)C2=C[C@@]1(C)CO	2.66 µM	7.56 µM	0.484 µM	2.33 µM	1.02 µM	12.3 µM	0.893 µM	2.5 µM	1.53 µM	> 100 µM	1.8 µM	3.53 µM	1.87 µM	5.75 µM	0.322 µM	> 100 µM	1.08 µM	9.6 µM	0.371 µM	3.28 µM
